Where a name gives a salt, the structure may show the parent alone. Read-outs that look alike come from different tables or passages of the source.

Data set [1] is described as follows: RP-HPLC retention on XTerra RP18, methanol/buffer; extrapolated retention factor log kw and slope S. It is filed as physicochemical. As to conditions: for log kw: intercept, extrapolated to 100 % buffer, methanol/buffer, 25 °C; for S (slope): slope of log k vs methanol volume fraction.
Description: All measurements were performed at 25°C with a constant flow rate of 0.8 mL min^-1 and UV detection in the range of 200-280 nm. The injection volume was 20 μL. […] The retention factor k was calculated for each mobile phase composition according to Equation (1):
where tr is the retention time of the tested compound and t0 is the dead volume measured with KNO3 as a non-retentive marker. The values corresponding to 100 % of the buffered eluent (log kw) were determined by extrapolation according to Equation (2):
where log kw is the intercept, S is the slope of the regression line, and φ is the volume fraction of the organic modifier in the mobile phase.
The retention behaviour in HPLC system was monitored by calculating extrapolated retention factors log kw corresponding to pure buffer as mobile phase.
For data set [2] the following is noted: cited from earlier work.
Data set [3] in a line: Capillary electrophoresis, effective electrophoretic mobility (acetone as EOF marker). It is filed as physicochemical. To be noted: for µeff4.4 / µeff7.4 / µeff9.1: I = 25 mmol/L, 11 kV, 25 °C, three replicates; for µeff7.4: pH 7.4; for μeff9.1 (effective electrophoretic mobility) / µeff9.1: pH 9.1.
Description: All experiments were performed using the SpectraPhoresis 500-capillary electrophoresis system (Spectra Physics Analytical, USA) with UV detector. Data were recorded and analyzed using ChromQuest software version 4.0 (Thermo Finnigan, USA).
The separations were performed with an uncoated fused capillary (total length 31.5 cm, 50 μm id, effective length 24 cm, Polymicro Technologies, USA) applying a voltage of 11 kV and at 25 °C. The samples were injected hydrodynamically and detection was performed in the 200-280 nm range. The new capillary was rinsed stepwise with 0.1 M NaOH (15 min), water (10 min) and a running buffer (10 min). Finally, a 10 min high voltage was applied through the background electrolyte-filled capillary to equalize the inner surface, stabilize the electroosmotic flow and ensure good reproducibility of injections from run to run. […] Between runs, the capillary was rinsed with the background electrolyte for 1 minute.
where Lt is the total length of the capillary (cm), Leff is the effective length of the capillary (cm), U is the applied voltage (V), tm is the migration time of the analyte (s) and teof is the migration time of the electroneutral EOF marker acetone (s). The calculated μeff values (μeff4.4, μeff7.4 and μeff9.1) were used as dependent variables in QSMR analysis.
The mark [4] stands for this setting: HPLC, ref 7 (Supplement reference list).
[5] abbreviates: pH spectrophotometric, ref 13 (Supplement reference list).

Regarding `CN1CCN(C2=Nc3cc(Cl)ccc3Nc3ccccc32)CC1` [Clozapine, clozapine], in data set [1] (pH 4.4), the log kw was 2.94 ± 0.03 and the “S (slope)” value is -4.69 ± 0.06. Moreover, in data set [1] (pH 7.4), the log kw was 3.85 ± 0.05 and the “S (slope)” value is given as -4.88 ± 0.08. Further, in data set [1] (pH 9.1), the log kw was 3.95 ± 0.08 and the “S (slope)” value was -5.04 ± 0.15. In addition, the pKa experimental in data set [2] (HPLC, ref 5 (Supplement reference list)) is given as 7.719 ± 0.015. Besides, the µeff4.4 in data set [3] (pH 4.4) is on record as 22.697 ± 0.017 10^-5 cm^2 V^-1 s^-1. Moreover, in data set [3], the µeff7.4 is 9.204 ± 0.061 10^-5 cm^2 V^-1 s^-1, the “μeff9.1 (effective electrophoretic mobility)” value is listed as “zero” and the µeff9.1 is 0.000 ± 0.000 10^-5 cm^2 V^-1 s^-1.
With `COc1cc2nc(N3CCN(C(=O)C4COc5ccccc5O4)CC3)nc(N)c2cc1OC` (stereo not drawn) [Doxazosin, doxazosin mesilat], in data set [1] (pH 4.4), the log kw is 3.42 ± 0.07 and the “S (slope)” value is listed as -5.56 ± 0.14. Further, in data set [1] (pH 7.4), the log kw is given as 3.67 ± 0.11 and the “S (slope)” value is listed as -5.05 ± 0.19. In data set [1] (pH 9.1), the log kw is given as 3.60 ± 0.11 and the “S (slope)” value is -4.95 ± 0.20. Also, the pKa experimental in data set [2] (voltammetric, ref 6 (Supplement reference list)) is on record as 6.89 ± 0.57. The µeff4.4 in data set [3] (pH 4.4) is 15.795 ± 0.013 10^-5 cm^2 V^-1 s^-1. In data set [3], the µeff7.4 is on record as 3.137 ± 0.075 10^-5 cm^2 V^-1 s^-1, the “μeff9.1 (effective electrophoretic mobility)” value is on record as “zero” and the µeff9.1 is recorded as 0.000 ± 0.000 10^-5 cm^2 V^-1 s^-1.
`CCC1(C2=NCCN2)Cc2ccccc2O1` (stereo not drawn) [Efaroxan, efaroxan hydrochloride]: in data set [1] (pH 4.4), the log kw is 1.31 ± 0.02 and the “S (slope)” value is -3.20 ± 0.04. For the same molecule, in data set [1] (pH 7.4), the log kw is listed as 1.33± 0.03 and the “S (slope)” value is listed as -3.10 ± 0.14. In addition, in data set [1] (pH 9.1), the log kw is listed as 1.85 ± 0.01 and the “S (slope)” value is reported as -3.38 ± 0.03. Also, the pKa experimental in data set [2] (setting [4]) was 10.02. In addition, in data set [3] (pH 4.4), the µeff4.4 is reported as 24.099 ± 0.035 10^-5 cm^2 V^-1 s^-1. In addition, in data set [3], the µeff7.4 is recorded as 22.704 ± 0.075 10^-5 cm^2 V^-1 s^-1 and the µeff9.1 is 16.361 ± 0.178 10^-5 cm^2 V^-1 s^-1.
Take `Cc1nccc2c1[nH]c1ccccc12` [Harman, harmane]: in data set [1] (pH 4.4), the log kw is on record as 1.72 ± 0.06 and the “S (slope)” value was -3.74 ± 0.18. In data set [1] (pH 7.4), the log kw was 2.76 ± 0.05 and the “S (slope)” value is reported as -3.70 ± 0.09. Also, in data set [1] (pH 9.1), the log kw was 2.78 ± 0.06 and the “S (slope)” value is listed as -3.75 ± 0.11. Further, the pKa experimental in data set [2] (setting [4]) is given as 7.21. Besides, in data set [3] (pH 4.4), the “μeff4.4 (effective electrophoretic mobility)” value was 28.19 10^-5 cm^2 / V s and the µeff4.4 was 28.192 ± 0.016 10^-5 cm^2 V^-1 s^-1. In data set [3], the µeff7.4 is 11.752 ± 0.034 10^-5 cm^2 V^-1 s^-1 and the µeff9.1 is listed as 0.000 ± 0.000 10^-5 cm^2 V^-1 s^-1.
On to `COc1ccc2c(c1)[nH]c1c(C)nccc12` [Harmine, harmine hydrochloride], for which, in data set [1] (pH 4.4), the log kw is 2.15 ± 0.04 and the “S (slope)” value is -4.28 ± 0.11. For the same molecule, in data set [1] (pH 7.4), the log kw is 2.88 ± 0.05 and the “S (slope)” value is given as -3.85 ± 0.09. In addition, in data set [1] (pH 9.1), the log kw was 2.95 ± 0.07 and the “S (slope)” value is given as -3.97 ± 0.12. Besides, the pKa experimental in data set [2] (spectrophotometric, ref 9 (Supplement reference list)) was 7.45 (spectrophotometric) [9]. For the same molecule, the µeff4.4 in data set [3] (pH 4.4) is given as 26.410 ± 0.068 10^-5 cm^2 V^-1 s^-1. In data set [3], the µeff7.4 was 13.636 ± 0.051 10^-5 cm^2 V^-1 s^-1 and the µeff9.1 is listed as 1.305 ± 0.124 10^-5 cm^2 V^-1 s^-1.
As to `c1ccc2c(c1)OCC(C1=NCCN1)O2` (stereo not drawn) [Idazoxan, idazoxan hydrochloride], in data set [1] (pH 4.4), the log kw was 0.82 ± 0.01 and the “S (slope)” value was -2.66 ± 0.03. Also, in data set [1] (pH 7.4), the log kw was 0.85 ± 0.02 and the “S (slope)” value is recorded as -1.58 ± 0.04. For the same molecule, in data set [1] (pH 9.1), the log kw was 1.53 ± 0.01 and the “S (slope)” value is listed as -2.80 ± 0.01. For the same molecule, in data set [2] (setting [4]), the pKa experimental is 9.04. The µeff4.4 in data set [3] (pH 4.4) is reported as 26.969 ± 0.032 10^-5 cm^2 V^-1 s^-1. In data set [3], the µeff7.4 is 23.293 ± 0.020 10^-5 cm^2 V^-1 s^-1 and the µeff9.1 is given as 6.627 ± 0.102 10^-5 cm^2 V^-1 s^-1.
`CNCCCC12CCC(c3ccccc31)c1ccccc12` [Maprotiline, maprotiline hydrochloride]: in data set [1] (pH 4.4), the log kw is given as 2.90 ± 0.08 and the “S (slope)” value was -4.31 ± 0.14. In data set [1] (pH 7.4), the log kw was 2.58 ± 0.12 and the “S (slope)” value was -3.18 ± 0.20. In addition, in data set [1] (pH 9.1), the log kw is listed as 3.09 ± 0.08 and the “S (slope)” value is given as -4.20 ± 0.14. Moreover, in data set [2] (potentiometric, ref 11 (Supplement reference list)), the pKa experimental was 10.45 ± 0.02. Besides, the µeff4.4 in data set [3] (pH 4.4) is 20.559 ± 0.034 10^-5 cm^2 V^-1 s^-1. Besides, in data set [3], the µeff7.4 is on record as 18.696 ± 0.048 10^-5 cm^2 V^-1 s^-1 and the µeff9.1 is 19.402 ± 0.148 10^-5 cm^2 V^-1 s^-1.
`CN1CCN2c3ccccc3Cc3ccccc3C2C1` (stereo not drawn) [Mianserin, mianserin hydrochloride]: the values for the log kw in data set [1] (pH 4.4), in data set [1] (pH 7.4) and in data set [1] (pH 9.1) were 2.48 ± 0.03, 3.91 ± 0.05 and 3.92 ± 0.06, respectively. Moreover, the “S (slope)” value in data set [1] (pH 4.4) is -4.24 ± 0.07; in data set [1] (pH 7.4) it was -4.82 ± 0.08; in data set [1] (pH 9.1), -4.83 ± 0.11. Further, in data set [2] (potentiometric, ref 12 (Supplement reference list)), the pKa experimental was 7.40. Further, in data set [3] (pH 4.4), the µeff4.4 is given as 22.471 ± 0.004 10^-5 cm^2 V^-1 s^-1. Also, the µeff7.4 in data set [3] was 12.234 ± 0.109 10^-5 cm^2 V^-1 s^-1. Moreover, the µeff9.1 in data set [3] is given as 0.000 ± 0.000 10^-5 cm^2 V^-1 s^-1.
For the molecule `COc1nc(C)nc(Cl)c1N=C1NCCN1` [Moxonidine, moxonidine hydrochloride], in data set [1] (pH 4.4), the log kw was 0.57 ± 0.03 and the “S (slope)” value is on record as -3.21± 0.17. In data set [1] (pH 7.4), the log kw is 0.63 ± 0.03 and the “S (slope)” value is given as -2.36 ± 0.10. Moreover, in data set [1] (pH 9.1), the log kw is 0.75 ± 0.04 and the “S (slope)” value is on record as -2.31 ± 0.10. The pKa experimental in data set [2] (setting [4]) is recorded as 7.84. The µeff4.4 in data set [3] (pH 4.4) is reported as 22.669 ± 0.104 10^-5 cm^2 V^-1 s^-1. In addition, in data set [3], the µeff7.4 is recorded as 10.907 ± 0.078 10^-5 cm^2 V^-1 s^-1, the “μeff9.1 (effective electrophoretic mobility)” value is “zero” and the µeff9.1 is recorded as 0.000 ± 0.000 10^-5 cm^2 V^-1 s^-1.
In the case of `c1ccc2c(CC3=NCCN3)cccc2c1` [Naphazoline, naphazoline hydrochloride], in data set [1] (pH 4.4), the log kw was 1.52 ± 0.01 and the “S (slope)” value is -3.48 ± 0.04. Further, in data set [1] (pH 7.4), the log kw is given as 1.52 ± 0.01 and the “S (slope)” value is recorded as -3.64 ± 0.05. In addition, in data set [1] (pH 9.1), the log kw was 1.76 ± 0.01 and the “S (slope)” value is -3.50 ± 0.03. In addition, the pKa experimental in data set [2] (setting [5]) is on record as 10.81. Besides, the µeff4.4 in data set [3] (pH 4.4) is 25.941 ± 0.038 10^-5 cm^2 V^-1 s^-1. Moreover, in data set [3], the µeff7.4 is on record as 24.180 ± 0.135 10^-5 cm^2 V^-1 s^-1 and the µeff9.1 was 24.643 ± 0.049 10^-5 cm^2 V^-1 s^-1.
With `Cc1cc(C(C)(C)C)c(O)c(C)c1CC1=NCCN1` [Oxymetazoline, oxymetazoline hydrochloride], in data set [1] (pH 4.4), the log kw was 2.33 ± 0.02 and the “S (slope)” value is given as -3.89 ± 0.04. Besides, in data set [1] (pH 7.4), the log kw is 2.33 ± 0.04 and the “S (slope)” value is recorded as -3.61 ± 0.10. Besides, in data set [1] (pH 9.1), the log kw is listed as 2.60 ± 0.07 and the “S (slope)” value is on record as -4.14 ± 0.16. The pKa experimental in data set [2] (setting [5]) was 10.62. Further, in data set [3] (pH 4.4), the µeff4.4 is reported as 20.276 ± 0.040 10^-5 cm^2 V^-1 s^-1. Moreover, in data set [3], the µeff7.4 was 19.061 ± 0.049 10^-5 cm^2 V^-1 s^-1 and the µeff9.1 was 19.556 ± 0.076 10^-5 cm^2 V^-1 s^-1.

Source of the values: article PMC11542720, “Modelling of chromatographic and electrophoretic behaviour of imidazoline and alpha adrenergic receptors ligands under different acid-base conditions” (ADMET & DMPK, 2024).
